Results published in patent US8048924B2, “Methods and compositions employing 4-aminophenylacetic acid compounds” (Biocon Limited, priority 2001, dated 2011).
Where two headings read alike, the source gives them in different places.

Legend:
[1] = Single oral dose pharmacokinetics of APAZA in dogs; type: in vivo, Beagle dogs; settings: for AUC(0-t) / Cmax / Tmax: Beagle, dog, plasma, single oral dose 1000 mg/kg; for AUC(0-t): read-out: area under the plasma concentration-time curve (AUC0-t); for Cmax: read-out: mean maximum plasma concentration (Cmax); for Tmax: read-out: time to maximum plasma concentration (tmax)
[2] = system: DNBS colitis; assay: Study AA-PH-003: oral and rectal APAZA and sulfasalazine in DNBS colitis; type: in vivo, male Lewis rats; parameters: Average Diarrhea Score Day 3: scale not given here; settings: for Colonic Inflammation Scores: scale 0-2
Description: Study AA-PH-003 was designed to evaluate the anti-inflammatory efficacy of oral and rectal doses of APAZATM and sulfasalazine in the DNBS colitis model in rats. […] Thirty-five adult male Lewis rats (body weight 200-250 g) were studied. […] Animal body weights and incidence of diarrhea were recorded daily. […] Animals in the DNBS groups and the parallel deionized water group were sacrificed on day 5. Laparotomies and colectomies were performed and animals were scored for the presence and severity of intestinal adhesions, strictures, inflammation, and ulceration. Colon: body weight ratios were determined and colon histopathology was performed.

[3] = system: DSS induced colitis; assay: Dextran sulfate sodium (DSS) colitis in the rat; type: in vivo, Sprague-Dawley rats; settings: oral gavage bid
Description: The effectiveness of APAZA™ and sulfasalazine in ameliorating intestinal inflammation in a model of dextran sulfate sodium (DSS) induced colitis in Sprague-Dawley rats was determined. Thirty-six male Sprague-Dawley rats that were 7-8 weeks old and weighed 240-260 g were studied. […] After completion of the treatment period, rats were euthanized and the efficacy of the test drugs in inhibiting colitis was assessed by the following: • Disease Activity Index Scoring: • Body weight • Colon wet weight: body weight ratios • Colonic Myeloperoxidase (MPO) activity • Histopathological changes of the colon

[4] = orally + 30 mg DNBS, APAZA 200 mg/kg, sulfasalazine 265.6 mg/kg
[5] = rectally + 30 mg DNBS, APAZA 200 mg/kg, sulfasalazine 265.6 mg/kg

O=C(O)Cc1ccc(/N=N/c2ccc(O)c(C(=O)O)c2)cc1 [APAZA™, 5-(4-carboxymethyl-phenylazo)-2-hydroxy-benzoic acid]
AUC(0-t) ([1]; female dogs): 40800 ng·h/mL
Cmax ([1]; female dogs): 2640 ng/mL
Tmax ([1]; female dogs): 24 h
AUC(0-t) ([1]; male dogs): 95400 ng·h/mL
Cmax ([1]; male dogs): 9780 ng/mL
Tmax ([1]; male dogs): 15 h
plasma levels versus dose ([1]; single oral dose, 100 to 1000 mg/kg): increased in a dose-related manner
severity of mucosal ulcers ([2]; compared to tissues from placebo and sulfasalazine treated animals): less severe
reduction relative to control in net colon: body weight (% BW) ratio ([2]; oral groups): 23.8%
Average Diarrhea Score Day 3 [2, 4]: 2
Colon Histopathology (# severe lesions) [2, 4]: 2
Length of Colonic Inflammation (cm) [2, 4]: 2.5 cm
Mean Body Weight [2, 4]: 213.8 g
Mean Colon Length (cm) [2, 4]: 12.3 cm
Net Colon: Body Weight Ratio [2, 4]: 0.2309
Colonic Inflammation Scores [2, 4]: 1.4
Average Diarrhea Score Day 3 [2, 5]: 2
Length of Colonic Inflammation (cm) [2, 5]: 1.6 cm
Mean Body Weight [2, 5]: 218.6 g
Mean Colon Length (cm) [2, 5]: 12.4 cm
Net Colon: Body Weight Ratio [2, 5]: 0.1983
Colonic Inflammation Scores [2, 5]: 1.3
colon wet weight: body weight ratio, DSS versus DW ([3]; APAZA 100 mg/kg, sulfasalazine 133 mg/kg): no statistically significant difference
Disease Activity Index (DAI) score ([3]; rats drinking 5% DSS, APAZA 100 mg/kg, sulfasalazine 133 mg/kg): 0-1
colonic MPO activity ([3]; rats receiving DSS): similar
histological changes of the colon ([3]; rats receiving DSS): largely protected
